This passage reports IC50 results from US4918172A, “Anthracycline antibiotics” (Sanraku Incorporated, priority 1987, dated 1990).

Holding throughout (format): cell-based
The test system of experiment [1] is mouse leukemia L1210 culture cells. Put plainly: inhibition of propagation (50% growth inhibiting concentration) of mouse leukemia L1210 culture cells. Particulars: read-out: 50% Inhibiting Concentration (IC50) Cell Growth Inhibition. On the procedure: (§1) Activity of inhibition propagation of mouse leukemia L1210 culture cells and of inhibition synthesis of nucleic acid in the cells:
L1210 cells (5×10^4 /ml) were inoculated in RPMI 1640 medium (Rose Wellberg Laboratory) containing 20% calf serum, and the compound of the present invention (as indicated in Table 1 below) was added thereto in a concentration of from 0.0005 to 50.0 μg/ml. Thus the cells were incubated in a CO2 incubator at 37° C. for 48 hours, and the 50% growth inhibiting concentration relative to the control group was obtained. The compound of the present invention was dissolved in M/50 acetic acid (pH 3.0) in a concentration of […] and then diluted with Dulbecco PBS (-) (manufactured by Nissui Pharmaceutical Co.), before being added to the medium.

For experiment [2] the test system is unchanged. Nature of the experiment: inhibition of DNA synthesis in L1210 culture cells (14C-thymidine uptake). Particulars: 10% calf serum RPMI 1640, label added 15 minutes after compound, further 60 minutes at 37° C., read-out: 50% Inhibiting Concentration (IC50) DNA Synthesis Inhibition. The procedure: as §1
(§2) Then a solution of the compound of the present invention prepared as mentioned above was added to the medium in a different concentration. 15 minutes after the addition, ^14 C-uridine (0.05 μCi/ml) or ^14 C-thymidine (0.05 μCi/ml) was added and the medium was further incubated at 37° C. for an additional 60 minutes. A cold 10% trichloroacetic acid (TCA) was added to the reaction solution so that the reaction was stopped and the acid-insoluble substance was precipitated. This was washed twice with a cold 5% TCA and then dissolved in formic acid. Then the radioactivity of the resulting solution was measured, and the 50% uptake inhibiting concentration was obtained from the radioactivity uptake ratio relative to the control group.

Experiment [3] has the same test system. Put plainly: inhibition of RNA synthesis in L1210 culture cells (14C-uridine uptake). The conditions noted are these: 10% calf serum RPMI 1640, label added 15 minutes after compound, further 60 minutes at 37° C., read-out: 50% Inhibiting Concentration (IC50) RNA Synthesis Inhibition. The procedure: as §1, §2
The mark [4] stands for this setting: L1210 cells, RPMI 1640 with 20% calf serum, 37° C., 48 hours.

In brackets after ≈: the same amount, converted by molar mass.

Consider `CCC1(O)CC(OC2CC(N)C(OC3CCC(O)C(C)O3)C(C)O2)c2c(O)c3c(c(O)c2C1O)C(=O)c1cccc(O)c1C3=O` (stereo not drawn) [CG15A], for which the IC50 in experiment [1] (setting [4]) is 0.002 µg/mL (≈ 0.00318 µM); in experiment [2], 1.2 µg/mL (≈ 1.91 µM); in experiment [3], 3 µg/mL (≈ 4.76 µM).

Turning to `CCC1(O)CC(OC2CC(N)C(OC3CC(O)C(O)C(C)O3)C(C)O2)c2c(O)c3c(c(O)c2C1O)C(=O)c1cccc(O)c1C3=O` (stereo not drawn) [CG15B], the IC50 in experiment [1] (L1210, 48 h) was determined as 0.04 µg/mL (≈ 0.062 µM); in experiment [2], 4.6 µg/mL (≈ 7.12 µM); in experiment [3], 2.5 µg/mL (≈ 3.87 µM).

For the compound `CCC1(O)CC(OC2CC(N)C(OC3CCC(O)C(C)O3)C(C)O2)c2c(O)c3c(c(O)c2C1C(=O)OC)C(=O)c1cccc(O)c1C3=O` (stereo not drawn) [CG17A], the figures for the IC50 in experiment [1] (setting [4]), in experiment [2] and in experiment [3] were 0.5 µg/mL (≈ 0.744 µM), 3.3 µg/mL (≈ 4.91 µM) and 1.1 µg/mL (≈ 1.64 µM), respectively.

Regarding `CCC1(O)CC(OC2CC(N)C(OC3CC(O)C(O)C(C)O3)C(C)O2)c2c(O)c3c(c(O)c2C1C(=O)OC)C(=O)c1cccc(O)c1C3=O` (stereo not drawn) [CG17B], the IC50 worked out at 1.4 µg/mL (≈ 2.04 µM) in experiment [1] (setting [4]), 10 µg/mL (≈ 14.5 µM) in experiment [2] and 2.3 µg/mL (≈ 3.34 µM) in experiment [3].

As to `CCC1(O)CC(OC2CC(N)C(OC3CCC(O)C(C)O3)C(C)O2)c2c(O)c3c(c(O)c2C1C(=O)OC)C(=O)c1cccc(OC)c1C3=O` (stereo not drawn) [CG19A], the figures for the IC50 in experiment [1] (setting [4]), in experiment [2] and in experiment [3] were 1 µg/mL (≈ 1.46 µM), 4.8 µg/mL (≈ 7 µM) and 1.3 µg/mL (≈ 1.9 µM), respectively.

Regarding `CCC1(O)CC(OC2CC(N)C(OC3CC(O)C(O)C(C)O3)C(C)O2)c2c(O)c3c(c(O)c2C1C(=O)OC)C(=O)c1cccc(OC)c1C3=O` (stereo not drawn) [CG19B], the IC50 in experiment [2] and in experiment [3] was 10 µg/mL (≈ 14.3 µM) each time.

Take `CC1OC(OC2C(N)CC(OC3CC(O)(C(C)O)Cc4c(O)c5c(c(O)c43)C(=O)c3c(O)cccc3C5=O)OC2C)CCC1O` (stereo not drawn) [CG20A]: the IC50 in experiment [2] and in experiment [3] was 1.2 µg/mL (≈ 1.91 µM) each time.

In the case of `CC1OC(OC2C(N)CC(OC3CC(O)(C(C)O)Cc4c(O)c5c(c(O)c43)C(=O)c3c(O)cccc3C5=O)OC2C)CC(O)C1O` (stereo not drawn) [CG20B], the IC50 stood at 10 µg/mL (≈ 15.5 µM) in experiment [2] and 5 µg/mL (≈ 7.74 µM) in experiment [3].

For the compound `CCC1(O)CC(OC2CC(N(C)C)C(OC3CCC(O)C(C)O3)C(C)O2)c2c(O)c3c(c(O)c2C1O)C(=O)c1cccc(O)c1C3=O` (stereo not drawn) [CG21A], the IC50 was 0.38 µg/mL (≈ 0.578 µM) in experiment [2] and 0.18 µg/mL (≈ 0.274 µM) in experiment [3].

For the compound `CCC1(O)CC(OC2CC(NC)C(OC3CCC(O)C(C)O3)C(C)O2)c2c(O)c3c(c(O)c2C1O)C(=O)c1cccc(O)c1C3=O` (stereo not drawn) [CG22A], the IC50 in experiment [2] worked out at 0.87 µg/mL (≈ 1.35 µM); in experiment [3] it was 1.4 µg/mL (≈ 2.17 µM).

As to `CCC1(O)CC(OC2CC(NC)C(OC3CC(O)C(O)C(C)O3)C(C)O2)c2c(O)c3c(c(O)c2C1O)C(=O)c1cccc(O)c1C3=O` (stereo not drawn) [CG22B], the IC50 in experiment [2] is 5 µg/mL (≈ 7.58 µM); in experiment [3], 10 µg/mL (≈ 15.2 µM).
